Holding throughout (format): cell-based
Assay [1] concerns the target Mer (phospho-Mer, MERTK-transfected 293A cells) (Homo sapiens (Human), UniProt Q12866). Kind of assay: Mer autophosphorylation ELISA in transient transfected 293A cells (Example H). As to conditions: cellular activity; Mer autophosphorylation ELISA in transient transfected 293A cells. In outline:
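IC50 from 4-parameter logistic fit of phospho-Mer levels, quantified by ELISA against a phospho-Mer standard in lysates of MERTK-transfected 293A cells. Cells exposed 1 h to 8-point serial dilutions, serum-free, 0.3% DMSO; controls: DMSO (100%) and reference inhibitor (0%).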

Assay [2] concerns the target KDR (phospho-KDR, VEGF165-stimulated HUVEC cells) (Homo sapiens (Human), UniProt P35968). Kind of assay: KDR autophosphorylation ELISA in HUVEC cells (Example G). The following applies: cellular activity; KDR autophosphorylation ELISA in HUVEC cells. In outline:
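Read-out: phospho-KDR in cell lysates by DuoSet IC ELISA, normalised between VEGF-stimulated DMSO wells (100%) and unstimulated wells (0%). Human endothelial cells were starved overnight in serum-free medium, exposed to compound for 1 h, and then pulsed with 100 ng/mL VEGF165 for 5 min.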
On the technique in general: ELISA stands for enzyme-linked immunosorbent assay.

Assay [3] addresses Met (phospho-Met, HGF-stimulated PC-3 prostate cancer cells) (Homo sapiens (Human), UniProt P08581). As to the kind of experiment: Met autophosphorylation ELISA in PC-3 cells (Example F). As to conditions: cellular activity; Met autophosphorylation ELISA in PC-3 cells; read-out: c-Met IC50. The procedure, abridged:
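Serum-starved (3 h) PC-3 cells were treated 1 h with compounds (8-point curve, 0.3% DMSO), then stimulated with 100 ng/mL human HGF for 10 min. Lysate phospho-Met (panTyr) was measured by sandwich ELISA, normalised to DMSO and reference-inhibitor controls. IC50 came from 4-parameter logistic fit.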

Assay [4] deals with AXL (phospho-AXL, Gas6-stimulated A-172 glioblastoma cells) (Homo sapiens (Human), UniProt P30530). Kind of assay: AXL autophosphorylation ELISA in A-172 cells (Example E). The following applies: cellular activity; AXL autophosphorylation ELISA in A-172 cells; read-out: Axl IC50. The protocol: A-172 cells were incubated at 37° C., 5% CO2 for 24 h and then starved for 24 h in serum-free medium. Test compounds were serially diluted to produce an 8-point dose curve in fresh serum-free medium to a final concentration of 0.3% DMSO (vehicle) and added to the cells and incubated for 1 h. […] Lysates were collected and 100 μL/well added into the human phospho-AXL DuoSet IC ELISA (R&D Systems #DYC2228-2). […] Positive control wells (100% activity) contained Gas6-stimulated, DMSO-treated cell lysates. Negative control wells (0% activity) contained Gas6-stimulated, reference inhibitor-treated cell lysates. IC50 values were calculated by nonlinear regression analysis using a 4-parameter logistic curve fit in ActivityBase XE (IDBS).
Sequence of AXL (phospho-AXL, Gas6-stimulated A-172 glioblastoma cells) (P30530 26-894): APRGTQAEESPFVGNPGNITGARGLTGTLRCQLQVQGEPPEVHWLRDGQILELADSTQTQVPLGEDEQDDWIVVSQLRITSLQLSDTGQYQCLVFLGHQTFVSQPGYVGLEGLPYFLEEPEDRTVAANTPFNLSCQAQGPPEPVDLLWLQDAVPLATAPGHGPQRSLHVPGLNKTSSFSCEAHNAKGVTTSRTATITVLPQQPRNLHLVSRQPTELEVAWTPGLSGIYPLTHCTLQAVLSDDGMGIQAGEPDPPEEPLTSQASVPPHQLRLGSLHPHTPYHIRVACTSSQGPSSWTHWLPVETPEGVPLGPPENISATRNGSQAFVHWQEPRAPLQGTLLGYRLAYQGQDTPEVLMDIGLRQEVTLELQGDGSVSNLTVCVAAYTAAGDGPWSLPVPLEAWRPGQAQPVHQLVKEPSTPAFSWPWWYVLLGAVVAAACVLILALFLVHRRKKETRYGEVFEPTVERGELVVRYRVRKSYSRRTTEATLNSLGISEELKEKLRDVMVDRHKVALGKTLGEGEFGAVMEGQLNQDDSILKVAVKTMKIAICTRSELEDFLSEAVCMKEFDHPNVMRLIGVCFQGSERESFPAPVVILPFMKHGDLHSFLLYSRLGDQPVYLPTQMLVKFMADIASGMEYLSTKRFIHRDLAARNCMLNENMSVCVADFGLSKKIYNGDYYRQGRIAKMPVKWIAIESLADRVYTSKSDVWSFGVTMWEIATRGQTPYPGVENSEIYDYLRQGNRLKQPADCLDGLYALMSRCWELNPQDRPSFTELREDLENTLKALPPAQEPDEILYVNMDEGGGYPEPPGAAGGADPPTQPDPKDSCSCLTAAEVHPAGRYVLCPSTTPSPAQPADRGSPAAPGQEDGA

Where only a bound is given, the exact number is not on record here.

By IC50 is commonly meant the midpoint of a concentration-inhibition curve.

Sequence of KDR (phospho-KDR, VEGF165-stimulated HUVEC cells) (P35968 20-1356): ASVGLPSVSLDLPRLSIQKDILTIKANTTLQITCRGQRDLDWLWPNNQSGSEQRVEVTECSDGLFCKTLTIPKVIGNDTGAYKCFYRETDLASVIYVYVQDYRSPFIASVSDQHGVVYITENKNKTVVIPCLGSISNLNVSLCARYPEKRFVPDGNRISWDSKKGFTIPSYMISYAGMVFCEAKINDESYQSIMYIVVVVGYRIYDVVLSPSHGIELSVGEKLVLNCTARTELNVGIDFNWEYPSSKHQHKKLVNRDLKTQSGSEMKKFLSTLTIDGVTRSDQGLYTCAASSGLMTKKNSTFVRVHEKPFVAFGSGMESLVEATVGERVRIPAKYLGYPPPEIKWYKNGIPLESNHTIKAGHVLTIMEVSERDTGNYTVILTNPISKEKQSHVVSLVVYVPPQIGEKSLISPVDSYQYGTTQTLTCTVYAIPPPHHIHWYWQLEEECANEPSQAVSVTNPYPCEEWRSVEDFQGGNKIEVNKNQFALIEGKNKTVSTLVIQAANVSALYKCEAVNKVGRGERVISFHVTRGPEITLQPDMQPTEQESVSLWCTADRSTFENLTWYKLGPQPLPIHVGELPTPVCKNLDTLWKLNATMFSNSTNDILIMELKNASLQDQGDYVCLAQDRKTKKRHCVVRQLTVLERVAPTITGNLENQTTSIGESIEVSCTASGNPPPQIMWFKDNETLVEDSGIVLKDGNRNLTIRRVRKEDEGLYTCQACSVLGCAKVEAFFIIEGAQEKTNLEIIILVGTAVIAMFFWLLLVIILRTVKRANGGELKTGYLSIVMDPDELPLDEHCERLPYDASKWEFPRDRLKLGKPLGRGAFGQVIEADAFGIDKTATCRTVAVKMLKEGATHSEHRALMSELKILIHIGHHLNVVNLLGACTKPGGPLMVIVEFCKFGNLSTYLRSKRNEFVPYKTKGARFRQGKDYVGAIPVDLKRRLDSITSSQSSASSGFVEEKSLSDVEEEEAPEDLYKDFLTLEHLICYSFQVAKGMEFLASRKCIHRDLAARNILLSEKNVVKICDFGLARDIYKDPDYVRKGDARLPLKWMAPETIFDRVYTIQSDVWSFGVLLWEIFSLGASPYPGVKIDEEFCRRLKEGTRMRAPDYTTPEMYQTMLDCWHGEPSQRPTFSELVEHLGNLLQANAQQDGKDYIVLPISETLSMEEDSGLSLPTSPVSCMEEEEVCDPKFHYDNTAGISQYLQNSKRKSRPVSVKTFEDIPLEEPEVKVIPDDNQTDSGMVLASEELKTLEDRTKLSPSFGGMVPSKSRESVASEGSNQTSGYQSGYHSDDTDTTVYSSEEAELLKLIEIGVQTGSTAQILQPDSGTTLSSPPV
Sequence of Met (phospho-Met, HGF-stimulated PC-3 prostate cancer cells) (P08581 25-1390): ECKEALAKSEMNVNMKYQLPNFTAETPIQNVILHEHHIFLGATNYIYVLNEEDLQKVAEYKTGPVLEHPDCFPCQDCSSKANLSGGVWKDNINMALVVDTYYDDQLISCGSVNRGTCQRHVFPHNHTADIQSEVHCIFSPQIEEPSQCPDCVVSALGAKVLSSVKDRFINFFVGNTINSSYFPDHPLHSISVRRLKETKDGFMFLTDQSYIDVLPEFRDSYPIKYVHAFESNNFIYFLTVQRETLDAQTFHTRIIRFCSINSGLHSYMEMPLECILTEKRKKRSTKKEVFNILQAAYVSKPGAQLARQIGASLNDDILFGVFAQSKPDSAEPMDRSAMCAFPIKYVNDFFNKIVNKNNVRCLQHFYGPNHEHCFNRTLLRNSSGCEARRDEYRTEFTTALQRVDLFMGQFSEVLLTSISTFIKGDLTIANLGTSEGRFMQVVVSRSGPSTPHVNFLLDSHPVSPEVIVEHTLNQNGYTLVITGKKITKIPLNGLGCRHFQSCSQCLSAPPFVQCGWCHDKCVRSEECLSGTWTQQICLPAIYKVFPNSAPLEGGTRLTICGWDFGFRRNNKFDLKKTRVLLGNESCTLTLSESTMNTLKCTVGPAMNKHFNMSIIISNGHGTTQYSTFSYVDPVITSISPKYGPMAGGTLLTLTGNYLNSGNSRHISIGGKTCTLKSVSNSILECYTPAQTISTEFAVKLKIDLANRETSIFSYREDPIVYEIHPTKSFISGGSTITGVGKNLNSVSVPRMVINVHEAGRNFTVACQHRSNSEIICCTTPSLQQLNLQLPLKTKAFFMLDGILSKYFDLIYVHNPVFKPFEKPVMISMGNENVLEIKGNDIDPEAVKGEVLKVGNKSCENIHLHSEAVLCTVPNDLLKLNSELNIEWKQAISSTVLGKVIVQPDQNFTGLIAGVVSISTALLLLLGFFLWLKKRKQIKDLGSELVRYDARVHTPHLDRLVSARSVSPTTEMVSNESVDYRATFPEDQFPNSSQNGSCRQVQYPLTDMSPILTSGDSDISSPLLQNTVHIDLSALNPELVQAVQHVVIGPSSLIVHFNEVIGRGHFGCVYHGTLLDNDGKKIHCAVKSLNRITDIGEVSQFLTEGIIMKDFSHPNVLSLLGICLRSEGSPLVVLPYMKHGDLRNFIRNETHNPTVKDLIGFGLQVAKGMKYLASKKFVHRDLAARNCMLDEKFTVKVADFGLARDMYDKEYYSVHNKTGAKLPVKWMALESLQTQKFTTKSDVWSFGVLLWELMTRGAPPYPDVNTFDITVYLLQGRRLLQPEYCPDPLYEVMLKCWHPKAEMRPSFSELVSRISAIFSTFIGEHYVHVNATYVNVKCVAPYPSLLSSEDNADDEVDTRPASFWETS
Sequence of Mer (phospho-Mer, MERTK-transfected 293A cells) (Q12866 21-999): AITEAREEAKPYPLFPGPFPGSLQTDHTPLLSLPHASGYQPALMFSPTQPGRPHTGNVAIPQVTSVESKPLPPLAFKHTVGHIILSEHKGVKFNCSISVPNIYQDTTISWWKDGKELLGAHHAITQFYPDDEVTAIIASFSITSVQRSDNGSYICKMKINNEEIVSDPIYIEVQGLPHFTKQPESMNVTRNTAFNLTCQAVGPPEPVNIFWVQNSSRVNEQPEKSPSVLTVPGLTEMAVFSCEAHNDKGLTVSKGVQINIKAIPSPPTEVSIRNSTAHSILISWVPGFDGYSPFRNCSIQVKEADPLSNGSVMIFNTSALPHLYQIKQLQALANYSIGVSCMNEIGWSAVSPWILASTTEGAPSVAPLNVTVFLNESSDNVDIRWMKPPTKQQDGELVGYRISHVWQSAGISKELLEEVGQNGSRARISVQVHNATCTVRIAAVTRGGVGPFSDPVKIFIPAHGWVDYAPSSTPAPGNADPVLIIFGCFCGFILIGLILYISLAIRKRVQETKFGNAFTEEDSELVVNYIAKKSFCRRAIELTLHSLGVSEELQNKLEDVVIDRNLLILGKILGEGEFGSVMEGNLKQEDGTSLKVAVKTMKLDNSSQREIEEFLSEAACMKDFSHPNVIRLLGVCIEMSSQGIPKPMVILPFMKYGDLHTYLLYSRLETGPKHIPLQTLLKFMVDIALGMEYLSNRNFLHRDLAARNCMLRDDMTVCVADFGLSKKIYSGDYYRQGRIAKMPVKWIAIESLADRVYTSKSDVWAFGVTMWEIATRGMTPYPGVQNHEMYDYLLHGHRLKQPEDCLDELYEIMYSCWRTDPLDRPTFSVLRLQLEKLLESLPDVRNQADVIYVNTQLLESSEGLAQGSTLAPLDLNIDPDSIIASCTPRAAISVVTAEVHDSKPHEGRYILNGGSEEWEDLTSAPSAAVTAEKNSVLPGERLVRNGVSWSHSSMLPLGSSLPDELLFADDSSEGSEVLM

Consider `COc1cc2nccc(Oc3ccc(NC(=O)c4cn(C5(C)COC5)cc(-c5ccc(F)cc5)c4=O)cc3F)c2cc1OC` [Compound 55, N-[4-(6,7-Dimethoxyquinolin-4-yl)oxy-3-fluorophenyl]-5-(4-fluorophenyl)-1-(3-methyloxetan-3-yl)-4-oxopyridine-3-carboxamide], for which the IC50 was less than 100 nM in assay [1], more than 300 nM in assay [2], less than 100 nM in assay [3] and less than 100 nM in assay [4].
For `COc1cc2nccc(Oc3ccc(NC(=O)c4cn(C(C)(C)CO)cc(-c5ccc(F)cc5)c4=O)cc3F)c2nc1OC` [Compound 56, N-[4-[(6,7-Dimethoxy-1,5-naphthyridin-4-yl)oxy]-3-fluorophenyl]-5-(4-fluorophenyl)-1-(1-hydroxy-2-methylpropan-2-yl)-4-oxopyridine-3-carboxamide], the half-inhibitory concentration (IC50) was less than 100 nM in assay [1], more than 300 nM in assay [2], less than 100 nM in assay [3] and less than 100 nM in assay [4].
With `COc1cc2nccc(Oc3ccc(NC(=O)c4cn(C(C)(C)CO)cc(-c5ccc(F)cc5)c4=O)cc3F)c2cc1OC` [Compound 57, N-[4-(6,7-Dimethoxyquinolin-4-yl)oxy-3-fluorophenyl]-5-(4-fluorophenyl)-1-(1-hydroxy-2-methylpropan-2-yl)-4-oxopyridine-3-carboxamide], the IC50 was less than 100 nM in assay [1], more than 300 nM in assay [2], less than 100 nM in assay [3] and less than 100 nM in assay [4].
Regarding `COCCOc1nc2c(Oc3ccc(NC(=O)c4c(C)nc(C)c(-c5ccc(F)cc5)c4O)cc3F)ccnc2cc1OC` [Compound 207, N-[3-Fluoro-4-[[7-methoxy-6-(2-methoxyethoxy)-1,5-naphthyridin-4-yl]oxy]phenyl]-5-(4-fluorophenyl)-4-hydroxy-2,6-dimethylpyridine-3-carboxamide], the IC50 in assay [1], in assay [2], in assay [3] and in assay [4] was less than 100 nM throughout.
Turning to `COCCOc1nc2c(Oc3ccc(NC(=O)c4c(C)nc(C)c(-c5ccc(F)cc5C)c4O)cc3F)ccnc2cc1OC` [Compound 208, N-[3-Fluoro-4-[[7-methoxy-6-(2-methoxyethoxy)-1,5-naphthyridin-4-yl]oxy]phenyl]-5-(4-fluoro-2-methylphenyl)-4-hydroxy-2,6-dimethylpyridine-3-carboxamide], the IC50 in assay [1], in assay [2], in assay [3] and in assay [4] was less than 100 nM throughout.
`CCn1cc(-c2ccc(F)cc2)c(=O)c(C(=O)Nc2ccc(Oc3ccnc4cc(OC)c(OC)nc34)cc2)c1C` [Compound 244, N-[4-[(6,7-Dimethoxy-1,5-naphthyridin-4-yl)oxy]phenyl]-1-ethyl-5-(4-fluorophenyl)-2-methyl-4-oxopyridine-3-carboxamide]: the IC50 in assay [1] was less than 100 nM; in assay [2] it was more than 300 nM; in assay [3], less than 100 nM; in assay [4], less than 100 nM.
For `COc1cc2nccc(Oc3ccc(NC(=O)c4n[nH]c(C)c(-c5ccc(F)cc5)c4=O)cc3)c2nc1OC` [Compound 253, N-[4-[(6,7-Dimethoxy-1,5-naphthyridin-4-yl)oxy]phenyl]-5-(4-fluorophenyl)-6-methyl-4-oxo-1H-pyridazine-3-carboxamide], the half-inhibitory concentration (IC50) in assay [1], in assay [2], in assay [3] and in assay [4] was less than 100 nM throughout.
For `COc1cc2nccc(Oc3ccc(NC(=O)c4c(C)ccn(-c5ccc(F)cc5C)c4=O)cc3F)c2nc1OC` [Compound 311, N-[4-[(6,7-Dimethoxy-1,5-naphthyridin-4-yl)oxy]-3-fluorophenyl]-1-(4-fluoro-2-methylphenyl)-4-methyl-2-oxopyridine-3-carboxamide], the IC50 in assay [1], in assay [2], in assay [3] and in assay [4] was less than 100 nM throughout.
Take `COc1cnc2c(Oc3ccc(NC(=O)c4c(C)c(Br)c(C)n(-c5ccc(F)cc5)c4=O)cc3)ccnc2c1` [Compound 312, 5-Bromo-1-(4-fluorophenyl)-N-[4-[(7-methoxy-1,5-naphthyridin-4-yl)oxy]phenyl]-4,6-dimethyl-2-oxopyridine-3-carboxamide]: the concentration for half-maximal inhibition (IC50) in assay [1] was less than 100 nM; in assay [2], 100 to 300 nM; in assay [3] it was less than 100 nM; in assay [4], less than 100 nM.
For `COc1cc2nccc(Oc3ccc(NC(=O)c4c(C)c(Br)c(C)n(-c5ccc(F)cc5)c4=O)cc3)c2nc1OC` [Compound 313, 5-Bromo-N-[4-[(6,7-dimethoxy-1,5-naphthyridin-4-yl)oxy]phenyl]-1-(4-fluorophenyl)-4,6-dimethyl-2-oxopyridine-3-carboxamide], the IC50 in assay [1], in assay [2], in assay [3] and in assay [4] was less than 100 nM each time.
Regarding `COc1cnc2c(Oc3ccc(NC(=O)c4c(C)c(Br)c(C)n(-c5ccc(F)cc5)c4=O)cc3F)ccnc2c1` [Compound 314, 5-Bromo-N-[3-fluoro-4-[(7-methoxy-1,5-naphthyridin-4-yl)oxy]phenyl]-1-(4-fluorophenyl)-4,6-dimethyl-2-oxopyridine-3-carboxamide], the IC50 in assay [1], in assay [2], in assay [3] and in assay [4] was less than 100 nM throughout.
As to `COc1cc2nccc(Oc3ccc(NC(=O)c4c(C)c(C)c(C)n(-c5ccc(F)cc5)c4=O)cc3)c2nc1OC` [Compound 315, N-[4-[(6,7-Dimethoxy-1,5-naphthyridin-4-yl)oxy]phenyl]-1-(4-fluorophenyl)-4,5,6-trimethyl-2-oxopyridine-3-carboxamide], the IC50 in assay [1], in assay [2], in assay [3] and in assay [4] was less than 100 nM throughout.
Turning to `COc1cnc2c(Oc3ccc(NC(=O)c4c(C)c(C)c(C)n(-c5ccc(F)cc5)c4=O)cc3F)ccnc2c1` [Compound 316, N-[3-Fluoro-4-[(7-methoxy-1,5-naphthyridin-4-yl)oxy]phenyl]-1-(4-fluorophenyl)-4,5,6-trimethyl-2-oxopyridine-3-carboxamide], the IC50 in assay [1], in assay [2], in assay [3] and in assay [4] was less than 100 nM throughout.
As for `COc1cnc2c(Oc3ccc(NC(=O)c4c(C)c(C)c(C)n(-c5ccc(F)cc5)c4=O)cc3)ccnc2c1` [Compound 317, 1-(4-Fluorophenyl)-N-[4-[(7-methoxy-1,5-naphthyridin-4-yl)oxy]phenyl]-4,5,6-trimethyl-2-oxopyridine-3-carboxamide], the IC50 in assay [1], in assay [2], in assay [3] and in assay [4] was less than 100 nM each time.
As to `COc1cc2nccc(Oc3ccc(NC(=O)c4c(C)c(C(N)=O)c(C)n(-c5ccc(F)cc5)c4=O)cc3F)c2nc1OC` [Compound 318, 5-N-[4-[(6,7-Dimethoxy-1,5-naphthyridin-4-yl)oxy]-3-fluorophenyl]-1-(4-fluorophenyl)-2,4-dimethyl-6-oxopyridine-3,5-dicarboxamide], the IC50 was less than 100 nM in assay [1], more than 300 nM in assay [2], less than 100 nM in assay [3] and less than 100 nM in assay [4].
For the compound `COc1cc2nccc(Oc3ccc(NC(=O)c4c(C)c(C(N)=O)c(C)n(-c5ccc(F)cc5)c4=O)cc3)c2nc1OC` [Compound 319, 5-N-[4-[(6,7-Dimethoxy-1,5-naphthyridin-4-yl)oxy]phenyl]-1-(4-fluorophenyl)-2,4-dimethyl-6-oxopyridine-3,5-dicarboxamide], the IC50 is less than 100 nM in assay [1], more than 300 nM in assay [2], less than 100 nM in assay [3] and less than 100 nM in assay [4].
As for `COc1cc2nccc(Oc3ccc(NC(=O)c4c(C)c(C#N)c(C)n(-c5ccc(F)cc5)c4=O)cc3)c2nc1OC` [Compound 320, 5-Cyano-N-[4-[(6,7-dimethoxy-1,5-naphthyridin-4-yl)oxy]phenyl]-1-(4-fluorophenyl)-4,6-dimethyl-2-oxopyridine-3-carboxamide], the IC50 in assay [1] was less than 100 nM; in assay [2], more than 300 nM; in assay [3], less than 100 nM; in assay [4], less than 100 nM.

The record behind these values is US12371428B2 (Exelixis, Inc., priority 2019, dated 2025).
